Data reported in publication PMC4013825 (Journal of biomolecular screening, 2014).

Columns and labels:
[1] = molecular target: T1, SERCA2a (sarco/endoplasmic reticulum calcium ATPase) (Canis lupus, UniProt O46674); assay: live-cell intramolecular FRET lifetime dose-response; type: cell-based
[2] = molecular target: T1, SERCA2a (sarco/endoplasmic reticulum calcium ATPase); assay: as above; type: cell-based; remark: listed apart in the source

T1 sequence (O46674 whole entry): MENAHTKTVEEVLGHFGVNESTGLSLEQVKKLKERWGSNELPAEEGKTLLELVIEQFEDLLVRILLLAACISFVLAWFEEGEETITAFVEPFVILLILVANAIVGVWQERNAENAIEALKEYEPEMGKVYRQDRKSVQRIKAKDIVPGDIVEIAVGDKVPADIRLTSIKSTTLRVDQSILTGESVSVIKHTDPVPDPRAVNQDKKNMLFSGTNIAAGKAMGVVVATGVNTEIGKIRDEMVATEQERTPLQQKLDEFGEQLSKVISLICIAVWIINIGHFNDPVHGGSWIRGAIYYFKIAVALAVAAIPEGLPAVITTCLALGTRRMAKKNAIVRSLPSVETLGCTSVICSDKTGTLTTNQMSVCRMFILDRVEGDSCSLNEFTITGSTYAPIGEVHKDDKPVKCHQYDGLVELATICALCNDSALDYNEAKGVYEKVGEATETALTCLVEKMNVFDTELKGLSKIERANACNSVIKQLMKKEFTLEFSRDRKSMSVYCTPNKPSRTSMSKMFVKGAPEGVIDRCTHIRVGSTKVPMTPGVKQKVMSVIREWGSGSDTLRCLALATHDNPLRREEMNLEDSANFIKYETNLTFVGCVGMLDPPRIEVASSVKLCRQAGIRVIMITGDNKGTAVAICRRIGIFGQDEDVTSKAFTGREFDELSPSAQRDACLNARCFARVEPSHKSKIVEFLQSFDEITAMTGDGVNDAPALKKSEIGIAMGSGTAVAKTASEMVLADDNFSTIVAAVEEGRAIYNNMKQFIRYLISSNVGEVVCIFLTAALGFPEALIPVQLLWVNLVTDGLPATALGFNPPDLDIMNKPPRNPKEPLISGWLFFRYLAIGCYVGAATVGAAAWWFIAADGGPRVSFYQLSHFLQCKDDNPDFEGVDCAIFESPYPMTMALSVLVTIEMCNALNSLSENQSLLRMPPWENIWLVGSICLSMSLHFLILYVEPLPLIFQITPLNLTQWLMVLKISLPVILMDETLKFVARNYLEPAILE

| SMILES | live-cell intramolecular FRET lifetime dose-response; ATPase inhibition in pig c [1] [nM] | Kd [2] [nM] |
| --- | --- | --- |
| C/C=C(/C)C(=O)O[C@H]1C(C)=C2[C@H]([C@@H]1OC(=O)CCCCCCC)[C@@](C)(OC(C)=O)C[C@H](OC(=O)CCC)[C@@]1(O)[C@H]2OC(=O)[C@@]1(C)O [TG, thapsigargin] | 7.5 | – |
| CC(=O)C1=C(O)[C@@H]2[C@H]3c4c[nH]c5cccc(c45)C[C@H]3C(C)(C)N2C1=O [CPA, cyclopiazonic acid] | – | ~40 |
